{"source": "paper PMC11963564", "about": "(Antimicrobial Agents and Chemotherapy, 2025)", "key": {"[1]": {"test_system": "SARS-CoV-2 Omicron variant B.1.1.529", "conditions": "cited from earlier work"}, "3CL^pro mutant F140A": {"test_system": "3CL^pro mutant F140A", "assay_type": "biochemical, SARS-CoV-2"}}, "data": [{"substance": "simnotrelvir", "values": [{"measurement": "IC50", "setting": "[1]", "result": 43, "unit": "nM"}, {"measurement": "IC50 fold change to WT", "setting": "3CL^pro mutant F140A", "result": 21.9, "unit": "fold"}]}]}
